Values of other authors in patent US20210401736A1, “SEMI-SOLID CHEWABLE GEL CANNABINOID COMPOSITIONS AND METHODS OF MAKING AND USING THEREOF” (Seattle Gummy Company, priority 2019, published 2021).

Columns and labels:
[1] = molecular target: T1, 5-HT1A receptor (Homo sapiens, UniProt P08908)
T1 sequence (P08908 1-422): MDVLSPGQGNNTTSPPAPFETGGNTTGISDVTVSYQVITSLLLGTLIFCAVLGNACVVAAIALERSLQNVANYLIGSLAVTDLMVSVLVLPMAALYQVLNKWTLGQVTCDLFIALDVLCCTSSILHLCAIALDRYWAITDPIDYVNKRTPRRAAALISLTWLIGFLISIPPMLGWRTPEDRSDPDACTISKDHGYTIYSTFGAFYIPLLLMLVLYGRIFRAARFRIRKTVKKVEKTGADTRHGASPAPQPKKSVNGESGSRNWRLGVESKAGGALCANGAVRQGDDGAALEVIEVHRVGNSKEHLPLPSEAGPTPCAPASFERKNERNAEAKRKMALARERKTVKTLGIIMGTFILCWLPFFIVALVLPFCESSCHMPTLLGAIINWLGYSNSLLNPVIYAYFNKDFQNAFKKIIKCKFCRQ

[2] = molecular target: CB1 receptor (Homo sapiens, UniProt P21554)
[3] = tested on: alpha2-adrenergic receptor
[4] = 5 mg of CBN versus 10 mg dose of diazepam, according to studies

Sequence of CB1 receptor (P21554 whole entry): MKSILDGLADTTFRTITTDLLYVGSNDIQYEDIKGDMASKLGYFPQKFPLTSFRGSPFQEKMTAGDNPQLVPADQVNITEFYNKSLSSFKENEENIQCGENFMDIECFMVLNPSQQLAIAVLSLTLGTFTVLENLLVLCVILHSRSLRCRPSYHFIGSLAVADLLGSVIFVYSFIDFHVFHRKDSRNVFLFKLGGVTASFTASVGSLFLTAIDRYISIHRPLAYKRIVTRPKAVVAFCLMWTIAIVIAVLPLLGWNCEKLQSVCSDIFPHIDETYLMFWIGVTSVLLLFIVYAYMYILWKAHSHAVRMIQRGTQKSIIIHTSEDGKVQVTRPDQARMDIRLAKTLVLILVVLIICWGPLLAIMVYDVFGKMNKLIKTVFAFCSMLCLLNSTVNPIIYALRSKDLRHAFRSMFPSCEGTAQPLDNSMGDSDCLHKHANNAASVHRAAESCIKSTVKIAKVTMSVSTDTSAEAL

SMILES	affinity, 5-HT1A receptor antagonist [1]	solubility in polyols such as glycerol	solubility in water	affinity, CB1 receptor antagonist [2]	affinity, alpha2-adrenergic receptor agonist [3]	sedative effect [4]
CCCCCc1cc(O)c(C/C=C(\C)CCC=C(C)C)c(O)c1 [CBG, cannabigerol]	moderate affinity	low solubility	water insoluble	low affinity	high affinity	
C=C(C)[C@@H]1CCC(C)=C[C@H]1c1c(O)cc(CCCCC)cc1O [CBD, cannabidiol, reference compound]		low solubility	water insoluble			
CCCCCc1cc(O)c2c(c1)OC(C)(C)c1ccc(C)cc1-2 [CBN, cannabinol]						as effective as 10 mg dose of diazepam
